Measured values taken from US20080227128A1, “Resonance Energy Transfer System and Method” (Mount Sinai School of Medicine of New York University, priority 2004, published 2008).
Read-outs that look alike come from different tables or passages of the source. One block for each molecule: values may come before it. *: point of attachment. Biotin = O=C1N[C@H]2[C@H](CS[C@H]2CCCCC(=O)*)N1

Assays:
PKA-Ala construct = experiment: BRET assay, PKA-Ala construct; format: cell-based, Human
L1-BRET construct = experiment: BRET assay, L1-BRET construct transfected in HEK-293 cells; format: cell-based, Human; conditions: for effect on the BRET ratio of the L1-BRET construct: HEK-293 cells; for effect on the BRET ratio of the L1-BRET construct / effect on the BRET ratio of EGF-stimulated cells: n=5; for effect on the BRET ratio of EGF-stimulated cells: src-family kinase inhibitors; for effect on the decrease in BRET ratio following EGF stimulation: pre-treating cells, genistein 100 μM
[1] = tested on: […], […], […] variant constructs; format: cell-based, Human
[2] = tested on: L1-BRET construct in ND7 cells; experiment: BRET assay, L1-BRET construct in ND7 cells; format: cell-based
Text: (§1) To confirm that the effects of MEK inhibitors were due to the phosphorylation state of […] (SEQ ID NO: 1), the effect of PD98059 and U0126 was examined on the BRET ratio of the […] (SEQ ID NO: 3), […] (SEQ ID NO: 4), and […] (SEQ ID NO: 5) variant constructs. […] To determine whether components of the MAPK cascade are responsible for phosphorylating the FIGQY (SEQ ID NO: 12) sequence in other cell types, downstream of other RTKs, L1-BRET construct was transiently transfected into ND7 (neuroblastoma) and PC12 (pheochromocytoma) cells (Dunn et al. (1991) Brain Res. 545:80-86; Pang et al. (1995) J. Biol. Chem. 270:13585-13588).

[3] = tested on: L1-BRET construct in PC12 cells; experiment: BRET assay, L1-BRET construct in PC12 cells; format: cell-based, rat; conditions: pre-treated
Text: as §1

endogenous L1-CAM = experiment: Anti-phosphotyrosine immunoblot of endogenous L1-CAM, NGF-stimulated ND7 cells; format: cell-based; conditions: 100 μM
Method: (§2) Near-confluent cultures of HEK-293 cells, stably transfected with either an acceptor-insert-donor construct, or CHIM construct (SEQ ID NO: 2); or ND7 cells were harvested with trypsin-EDTA and resuspended to a density of 6×10^5 cells/ml. Aliquots (5 ml) of cell suspensions were added to 100 mm cell culture dishes (Corning Incorporated Life Sciences, Acton, Mass.) and incubated for 12 hrs at 37° C. Stably transfected HEK-293 cells were treated with genistein for 4 hrs at 37° C; and ND7 cells were treated with 100 μM PD98059 for 1 h and with 100 ng/ml NGF for 15 min. […] The protein concentrations of the supernatants were determined by using the BCA (bicinchoninic acid) protein assay (Pierce Chemical Company, Rockford, Ill.). […] Immobilized protein A beads were washed and resuspended in Laemnuli buffer, analyzed by SDS-PAGE, and transferred to nitrocellulose membrane. […]
To determine whether the MAPK signaling cascade can modulate tyrosine phosphorylation of full-length L1-CAM, the effect of MEK inhibitors was examined on ND7 cells stimulated with NGF. Cell lysates were immunoprecipitated with an anti-L1-CAM Ab and subsequently analyzed by immunoblotting (FIG. 2F) with an anti-phosphotyrosine Ab to detect phosphorylated L1-CAM (upper blot). […]

L1-SLADY BRET = experiment: BRET assay, L1-SLADY BRET reporter in HEK-293 cells; format: cell-based, Human
Text: Another MAP kinase pathway reporter was constructed and tested using the methods described above and is outlined in the L1-SLADY BRET Data shown in FIGS. 5A, 5B, and 5C. The results of these figures are consistent with the other MAP kinase pathway data showing that the BRET system can be used as a MAP kinase pathway reporter.

[4] = tested on: ankyrin B recruitment to the plasma membrane; experiment: Ankyrin B recruitment to the plasma membrane (immunofluorescence), HEK-293 cells with L1-CAM and ankyrin-B GFP; format: cell-based, Human
Method: HEK-293 cells were transfected with cDNA encoding an amino-terminal myc-epitope tagged full-length wild-type neuronal adhesion protein L1-CAM and a carboxy-terminal GFP-tagged ankyrin B construct using lipofectamine reagents. […] For immunolocalization, cells were fixed for 10 min using 1% (w/v) paraformaldehyde in 60 mM Pipes, 25 mM Hepes, 10 mM EGTA, and 2 mM MgCl2. Staining was performed as described previously (Felsenfeld et al. (1999) Nat. Cell Biol. 1:200-6). Briefly, ankyrin B was detected by indirect immunofluorescence using a rabbit anti-GFP polyclonal Ab and a donkey anti-rabbit Ab conjugated to indodicarbocyanince Cy5. L1-CAM was detected by indirect immunofluorescence using a mouse anti-myc monoclonal Ab and a donkey anti-mouse Ab conjugated to indocarbocyanine Cy3. […] Images were analyzed using NIH ImageJ (National Institutes of Health, Bethesda, Md.). […] Signal maximum for ankyrin staining at the junction between cells was determined at the position of the maximal L1-CAM staining to ensure that membrane rather than juxtamembrane staining was quantified. Minima were determined from the regions of the line overlapping the cytoplasm of either of the two cells. Membrane localization index was determined using the equation index=max/(max-min) as described (Gil et al. (2003) J. Cell Biol. 162:719-30). […]

KGGKY construct = experiment: BRET assay, Src pathway reporter (KGGKY construct) in HEK-293 cells; format: cell-based, Human
Method: Using a target sequence derived from a tyrosine in the L1-CAM cytoplasmic tail, a reporter was generated encoding a 12 amino acid insert, including a terminal tyrosine ([…], SEQ ID NO: 13). […] However, the Src-family inhibitor PP1 causes an increase in the BRET efficiency at doses above 20 μM while a related inhibitor PP2 has no effect at similar doses (FIG. 9B, results are shown mean±standard deviation, *P<0.01). […] Fibroblasts derived from wild-type (+/+src) or Src-null (−/−src) mice were treated with FGF, which activates indirectly Src-family kinases.

PKA construct = experiment: BRET assay, PKA construct in HEK-293 cells; format: cell-based, Human; conditions: kinase inhibitors
Text: A reporter was generated for PKA based on a target domain derived from fish connexin35 (Mitropoulou et al. (2003) J. Neurosci. Res. 72:147-157). The PKA insert target sequence ([…]) contains a carboxy-terminal serine phosphorylation target.

myr-L1-BRET = experiment: BRET assay, myristoylated construct (myr-L1-BRET) in HEK-293 cells; format: cell-based, Human; conditions: 20 μM U0126
Method: (§4) Near-confluent cultures of HEK-293 cells were harvested with trypsin-EDTA (0.05% trypsin, 0.53 mM EDTA; Invitrogen Corporation, Carlsbad, Calif.) and resuspended to a density of 2.5×10^5 cells/ml. Aliquots (200 μl) of cell suspensions were added to white 96-well culture plates (CulturPlate™; PerkinElmer Life Sciences, Boston, Mass.) and incubated for 12 hrs at 37° C. HEK-293 cells were transfected with 0.1 μg of DNA/well using lipofectamine reagents (Lipofectamine Plus and Lipofectamine™; Invitrogen) according to the manufacturer's instructions. After incubation of plates for 48 hrs at 37° C., the cells were washed once with warm Dulbecco's Modified Eagle's Medium (D-MEM) without phenol red (Invitrogen) supplemented with 25 mM Hepes (Invitrogen). […] The plates were immediately counted using the Fusion Universal Microplate Analyzer (PerkinElmer Life Sciences).
(§5) Bioluminescence resulting from Rluc emission was counted at 410 nm using a 370-450 nm band pass filter and the fluorescence of GFP2 was counted at 515 nm using a 500-530 nm band pass filter. The efficiency of energy transfer between Rluc and GFP2 is determined by dividing acceptor emission intensity (GFP2) by donor emission intensity (Rluc). […]

MEK = experiment: In vitro kinase assay with purified MEK; format: biochemical; conditions: for phosphorylation in the presence of purified MEK: substrate
[5] = tested on: cerebellar granular neurons; experiment: Neurite outgrowth assay on Ng-CAM; format: cell-based, mouse; conditions: 10 μM U0126
Method: (§3) Neurite outgrowth experiments were performed as described (Gil et al. (2003) J. Cell Biol. 162:719-30) with slight modification. A 1 cm-diameter circle in a 35 mm petri dish (Becton Dickinson) was coated with poly-L-lysine (5 μg/ml in phosphate-buffered saline (PBS) from Speciality Media, Phillipsburg, N.J.) for 1 hr at room temperature. After several washes with PBS, the coated area was dried under the hood. Aliquots of 1 μl of neural-glial cell adhesion molecule (Ng-CAM, Gil et al. (2003) J. Cell Biol. 162:719-30) at 50 μg/ml or laminin at 30 μg/ml (Becton Dickinson) were spotted on the coated area. Dishes were incubated for 1 hr at room temperature, washed several times with PBS and then blocked with 1% (w/v) bovine serum albumin (BSA). Cerebellar cells were prepared from P2-P4 mouse and plated on the prepared dishes in BME/B27/glucose/glutamine/Pen-Strep media at a cell density of 3×10^5 cells/ml. Peptides and U0126 were diluted in DMSO (10 mg/ml for peptides, 13 mM for U0126) and further diluted in media (final concentration 10 μg/ml peptide; 10 μM U0126) which was added to the cultures when the cells were plated. Cultures were incubated for 2 days and fixed with 4% paraformaldehyde.

[6] = tested on: cerebellar granular neurons; experiment: Neurite outgrowth assay on laminin; format: cell-based, mouse; conditions: 10 μM U0126
Method: as §3

myr-FIGQH, myr-FIGQF = conditions: 20 μM U0126; tyrosine mutated to histidine or phenylalanine
Method: as §4, §5

L1-BRET protein = experiment: Anti-phosphotyrosine immunoblot of L1-BRET protein, stably transfected HEK-293 cells; format: cell-based, Human; conditions: pretreated with genistein 100 μM
Method: as §2
Immunoblot analysis was performed (FIG. 1G). Cell lysates were immunoprecipitated with an anti-GFP Ab and subsequently analyzed by immunoblotting with an anti-phosphotyrosine Ab to detect phosphorylated BRET constructs (upper blot). […] There was no phosphotyrosine detected in the CHIM construct (SEQ ID NO: 2) in the presence or absence of genistein, consistent with the idea that phosphorylation of the FIGQY (SEQ ID NO: 12) tyrosine is responsible for the changes observed in the spectrum of L1-BRET.

Molecule: Nc1ncnc2c1ncn2[C@@H]1O[C@@H]2COP(O)(=S)O[C@H]2[C@H]1O (single isomer, unassigned) [Sp-cAMPs, Adenosine-3′,5′-cyclic monophosphorothioate, Sp-isomer]
effect on BRET ratio, serine mutated to alanine (PKA-Ala construct): has no effect

Molecule: COc1cccc(-c2cc(=O)c3ccccc3o2)c1N [PD98059]
effect on the BRET ratio of the L1-BRET construct (L1-BRET construct): increased the BRET ratio of the L1-BRET construct in a dose-dependent manner | change in the BRET ratio of the variant constructs with MEK inhibitors [1]: no change in the BRET ratio | change in the BRET ratio of the L1-BRET construct in ND7 cells [2]: increases in the BRET ratio | change in the BRET ratio of the L1-BRET construct in PC12 cells [3]: increases in the BRET ratio | level of tyrosine phosphorylation of endogenous L1-CAM (endogenous L1-CAM): marked decrease in the level of tyrosine phosphorylation | effect on the decrease in BRET ratio (FIG. 5A, 5B) (L1-SLADY BRET): reverses the decrease in BRET ratio | effect on the EGF-induced decrease in ankyrin B recruitment ([4]; 100 μM PD98059 with 100 ng/ml EGF): reversed | effect on this reporter (KGGKY construct; 100 μM): no detectible effect

Molecule: Cc1ccc(-c2nn(C(C)(C)C)c3ncnc(N)c23)cc1 [PP1]
effect on the BRET ratio of EGF-stimulated cells (L1-BRET construct): had no effect on the BRET ratio | doses causing an increase in the BRET efficiency (KGGKY construct; dose response): above 20 μM | effect on FRET efficiency of the PKA reporter (PKA construct): had no effect on FRET efficiency

Molecule: CC(C)(C)n1nc(-c2ccc(Cl)cc2)c2c(N)ncnc21 [PP2]
effect on the BRET ratio of EGF-stimulated cells (L1-BRET construct): had no effect on the BRET ratio | effect on BRET efficiency at similar doses (KGGKY construct; doses similar to PP1 (above 20 μM)): has no effect

Molecule: N#CC(=C(/N)Sc1ccccc1N)/C(C#N)=C(\N)Sc1ccccc1N [U0126]
effect on the BRET ratio of the L1-BRET construct (L1-BRET construct): increased the BRET ratio of the L1-BRET construct in a dose-dependent manner | change in the BRET ratio of the variant constructs with MEK inhibitors ([1]; 100 μM): no change in the BRET ratio | change in BRET ratio of the myristoylated construct following inhibition of MEK (myr-L1-BRET): increase in BRET ratio | change in the BRET ratio of the L1-BRET construct in ND7 cells [2]: increases in the BRET ratio | change in the BRET ratio of the L1-BRET construct in PC12 cells [3]: increases in the BRET ratio | effect on the increase in phosphorylation of MEKSBS and […] peptide (MEK; purified MEK): inhibited | mean neurite length [5]: reduces mean neurite length | axon growth on laminin [6]: inhibited | change in BRET ratio of mutated myristoylated constructs following inhibition of MEK (myr-FIGQH, myr-FIGQF): abolishes the increase in BRET ratio

Molecule: O=c1c(-c2ccc(O)cc2)coc2cc(O)ccc12 [daidzein]
effect on the decrease in BRET ratio following EGF stimulation (L1-BRET construct): had no effect

Molecule: COC(=O)C=Cc1cc(O)ccc1O [erbstatin analog, methyl 2,5-dihydroxycinnamate]
effect on the BRET ratio of the L1-BRET construct (L1-BRET construct): increased the BRET ratio of the L1-BRET construct in a dose-dependent manner

Molecule: O=c1c(-c2ccc(O)cc2)coc2cc(O)cc(O)c12 [genistein]
effect on the decrease in BRET ratio following EGF stimulation (L1-BRET construct): reversed | change in the BRET ratio of the L1-BRET construct in ND7 cells [2]: increase in the BRET ratio | tyrosine phosphorylation of L1-BRET protein (L1-BRET protein): completely inhibited | effect on the decrease in BRET ratio (FIG. 5A, 5B) (L1-SLADY BRET): reversing the decrease in BRET ratio | effect on EGF-dependent decrease in BRET efficiency (KGGKY construct; 100 μM genistein, 100 ng/ml EGF): reversed

Molecule: Biotin-ADPDHDHTGFLTEYVATRW-OH [MEKSBS]
phosphorylation in the presence of purified MEK (MEK): phosphorylated

Molecule: EGF: Epidermal growth factor (EGF), obtained from Sigma-Aldrich
level of ankyrin B recruited to the plasma membrane ([4]; 100 ng/ml EGF): decrease in the level of ankyrin B recruited to the plasma membrane

phosphorylation in the presence of purified MEK (MEK): phosphorylated
Molecule: KPLGSDDSLADY [L1-derived peptide phosphorylated by purified MEK]
